# US20030186948A1, “O-linked N-acetylglucosamine pathway in the pathogenesis of neurodegeneration and diabetes” (priority 2000, published 2003)
# Where a SMILES comes first, the peptide text is derived from it. [ ]: non-standard residue; d: D form. The star is where a group is joined. Nle = CCCC[C@H](N)C(=O)O; Cbz = O=C(OCc1ccccc1)*
# Experiments:
# [1] = test system: Sp1 proteasome degradation; experiment: Sp1 depletion in cells under low glucose and cAMP accumulation; type: cell-based
# Excerpt: This study therefore correlated the stability of Sp1 against proteasome degradation with the level of Sp1 modification by O-GleNAc.
# The depletion of O-GlcNAc on Sp1 and other proteins appeared to have resulted both from the glucose starvation and from the cAMP.
# [2] = target: T1, proteasome chymotryptic activity in NRK nuclear extracts (Rattus norvegicus, UniProt P28075); experiment: suc-LLVY-AMC proteasome peptidase assay in NRK nuclear extracts; type: biochemical; conditions: cells treated before extract preparation; data not shown
# T1 construct: endogenous in cells; host or cells: NRK cells, nuclear extract
# T1 sequence (P28075 60-263): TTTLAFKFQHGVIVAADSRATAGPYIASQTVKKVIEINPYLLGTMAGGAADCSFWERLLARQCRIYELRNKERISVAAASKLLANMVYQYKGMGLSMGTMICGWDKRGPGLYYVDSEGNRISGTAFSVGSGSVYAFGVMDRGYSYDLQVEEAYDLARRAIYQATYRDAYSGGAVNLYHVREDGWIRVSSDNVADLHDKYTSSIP
# Experimental: The chymotryptic activity of the proteasome itself can be measured using short synthetic peptides. The peptide, N-succinyl-Leu-Leu-Val-Tyr-7-amido-4-methylcoumarin (suc-LLVY-AMC) (Sigma), is coupled to a fluorescent indicator, and the cleavage can be monitored and quantitated by a fluorometer. […] The reaction is carried out in a 96 well plate.
# If the chymotryptic cleavage has occurred, the fluorescence can b e excited with UV light at 365 nm and detected by a CCDdigital camera coupled to a computer. Because the LLVY peptide can be cleaved by any enzyme having chymotryptic activity, cleavage is not specifically proteasome-dependent. However, if cleavage is blocked by a wide spectrum proteasome inhibitors, then it is reasonable to deduce that the detected fluorescence is proteasome-dependent.
# Proteasome peptidase activity in activated NRK nuclear extracts was examined with this assay. The activity could be inhibited by preincubating the extract with known proteasome inhibitors indicating the fluorescent signal derives from authentic proteasome activity (FIG. 2). […] When the extract was exposed briefly to GST-OGT plus UDP-GlcNAc and then the O-GlcNAc transferase was removed, the chymotryptic activity was eliminated. GST had no effect on the proteasome activity. […] The chymotryptic activity of the proteasome was stimulated by this treatment.
# [3] = test system: p135 O-glycosylation in pancreatic islets; experiment: Pancreatic islet p135 O-glycosylation (RL2 immunoprecipitation and Western blot); type: cell-based, rat; conditions: for inhibition of p135 O-glycosylation: comparison with NOC-15, FIG. 12
# Experimental: Rat pancreatic islets were isolated, counted into tubes and pre-incubated with 3 mM glucose. Following pre-incubation, islets were stimulated with 3 mM glucose, 5 mM STZ, 5 mM NOC-15, or 5 mM DPTA. NOC-15 ((Z)-1-[N-(3-Ammoniopropyl)-N-(n-propyl)amino]diazen-ium-1,2-diolate, also known as PAPA NONOate) is a structural analog of […] (FIG. 9). At the end of the experiment, O-glycosylated proteins were immunoprecipitated with RL2 antibody, which binds to O-linked N-acetylglucosamine. Immunoprecipitated proteins were run out on a 6.5% SDS-PAGE gel and the proteins were then transferred to a nitrocellulose blot. The blot was then probed with RL2 antibody, which was detected by the ECL method. The blot was exposed to X-ray film and the film was developed and photographed. […] The structure and action of NOC-15 can thus be used as a basis to synthesize drugs that can be used to prevent and/or treat diabetes.
# [4] = test system: hippocampal neurons; experiment: Intracerebroventricular streptozotocin in TGFα-βgal mice: p53 staining and reporter function in brain; type: in vivo, mouse
# Experimental: A number of research groups have developed techniques of injecting streptozotocin into the cerebral ventricles (Lannert & Hoyer, 1998; Weinstock et al., 2001; Sharma & Gupta, 2002). To determine if treatment with streptozotocin causes p53 accumulation in the brain, freshly prepared streptozotocin can be injected stereotactically into the cerebral ventricles, and the brain tissues can then be stained for the presence of p53. When the control TGFα-βgal mice were injected with vehicle alone, no p53 was detected 16 hours post injection. […] STZ was also injected into TGFα-βgal mice with a homozygous knock-out of p53.
# The brains slices from similar mice receiving icv injections 36 hours prior to sacrifice were examined for TGFα-βgal reporter function.
# [5] = test system: TGFα promoter β-gal reporter in pancreatic β-cells; experiment: TGFα-βgal reporter activity in islets after streptozotocin injection; type: in vivo, mouse; conditions: TGFα-βgal reporter mice, dose that causes β-cell apoptosis
# Experimental: The TGFα promoter was placed in front of the β-galactosidase reporter gene and developed two lines of transgenic mice. The line with the best reporter activity was used in all subsequent experiments. Tissue expression of the reporter was detected as follows: tissues were quickly excised, cut into pieces, and fixed in 4% paraformaldehyde (made in PBS, pH 7.5) for 30 min at 4° C. Tissue sections were rinsed three times 10 min each in ice-cold PBS, immersed in freshly prepared staining solution [10 ml solution of PBS (pH 7.4) containing 2 mM MgCl2, 0.01% sodium deoxycholate, 0.02% NP40, 0.1% X-gal dissolved in dimethylformamide, 82.5 mg potassium ferricyanide, and 94.5 mg potassium ferrocyanide], and incubated overnight at 37° C. The reaction was stopped by rinsing the organs in PBS. Sampleswere stored in 70% ethanol at 4° C. […] For example, β-gal activity was detected in the pituitary and in some neurons, sites where native TGFα had been detected before. […] Of particular interest in this regard was the absence of staining in the exocrine and endocrine pancreas.
# Because p53 accumulates in the islet in response to STZ, and TGFα transcription is driven by p53, it is reasonable to examine the TGFα reporter mice for TGFα promoter activation in the islets. Mice were injected with streptozotocin at the dose that cause β-cell apoptosis. […]
# [6] = target: T2, brain proteasome LLVY chymotryptic activity (Rattus norvegicus, UniProt P28075); experiment: suc-LLVY-AMC cleavage in brain extract of streptozotocin-injected animals; type: in vivo
# T2 construct: Brain extract was prepared from animals injected with or without streptozotocin; from tissue; host or cells: brain extract
# T2 sequence (P28075 60-263): T1 sequence (P28075 60-263)
# Experimental: To determine whether STZ-injected animals display a n alteration in proteasomal function, the cleavage of the peptide LLVY was examined following streptozotocin treatment. Brain extract was prepared from animals injected with or without streptozotocin, and suc-LLVY-AMC was added to the extract.
# [7] = test system: hippocampal neurons (CA1 region); experiment: RL2 immunostaining of brain O-GlcNAc after cerebroventricular streptozotocin; type: in vivo, rat; conditions: 6 hours after injection
# Experimental: To determine if streptozotocin causes hippocampal neuron O-GlcNAc accumulation, the drug was delivered stereotactically to the cerebroventricles of a rat brain. The brain tissues were then stained for O-GlcNAc content using the O-GlcNAc-specific monoclonal antibody, RL2. Staining of rat tissue by this mouse antibody is easier because detection is not hampered by endogenous mouse IgG. Staining is blocked by preincubation of RL2 with GlcNAc, but not GalNAc or glucosamine (needs acetylation) or other sugars. The bound RL2 can be detected by fluorescent-tagged antimouse IgG antibody. […] At 6 hours post-injection, the animals were sacrificed and brain O-GlcNAc content was detected with RL2 immunostaining as previously described (Liu et al., 2000).
# [8] = test system: pancreatic islets; experiment: TUNEL assay and p53 staining of pancreatic slices from STZ-treated rats; type: in vivo, rat
# Experimental: The effect of streptozotocin on p53 accumulation in the islets was determined using immunohistochemistical analysis of pancreatic slices from rats treated for various times with STZ. […] This assay has been described thoroughly (Liu et al., 2000). The TUNEL positivity peaks at about 22-24 hours after the administration of STZ. When the tissue was stained with p53 antibodies, it was noted that p53 accumulation preceded the apoptosis. […] This corresponds with the observation the O-GlcNAc transferase is much more highly expressed in the endocrine pancreas. STZ also is toxic to the somatotropes in the pituitary where O-GlcNAc transferase is highly expressed. Thus, it is predicted there where O-GlcNAc transferase is abundant, STZ-sensitivity should be seen.
# [9] = test system: proteasome processing of Sp1 in nuclear extract; experiment: Sp1 degradation by proteasome in nuclear extract; type: biochemical; conditions: activated nuclear extract
# [10] = test system: O-GlcNAc modification of p135 in isolated β-cells; experiment: O-GlcNAc modification of p135 in isolated β-cells treated with alloxan; type: cell-based
# Experimental: (§1) Another chemical means of inhibiting O-GlcNAc transferase has been discovered. Another long known diabetogenic drug, alloxan (ALX) (FIG. 8 above), is a uracil analog. Injections of this drug into laboratory rats also causes a relatively specific death of the pancreatic β-cells. […] Purified recombinant O-GlcNAc transferase is inhibited half-maximally by 0.1 mM alloxan, compatible with the dose of this drug that causes diabetes. These studies indicate that an analog of UDP-GlcNAc that mimics the uracil moiety like alloxan, might be an index compound for the discovery of other UDP-GlcNAc like molecules that inhibit the O-GlcNAc transferase.
# [11] = target: T3, Purified recombinant O-GlcNAc transferase (Homo sapiens, UniProt O15294); experiment: Inhibition of purified recombinant O-GlcNAc transferase; type: biochemical
# T3 sequence (O15294 1-1046): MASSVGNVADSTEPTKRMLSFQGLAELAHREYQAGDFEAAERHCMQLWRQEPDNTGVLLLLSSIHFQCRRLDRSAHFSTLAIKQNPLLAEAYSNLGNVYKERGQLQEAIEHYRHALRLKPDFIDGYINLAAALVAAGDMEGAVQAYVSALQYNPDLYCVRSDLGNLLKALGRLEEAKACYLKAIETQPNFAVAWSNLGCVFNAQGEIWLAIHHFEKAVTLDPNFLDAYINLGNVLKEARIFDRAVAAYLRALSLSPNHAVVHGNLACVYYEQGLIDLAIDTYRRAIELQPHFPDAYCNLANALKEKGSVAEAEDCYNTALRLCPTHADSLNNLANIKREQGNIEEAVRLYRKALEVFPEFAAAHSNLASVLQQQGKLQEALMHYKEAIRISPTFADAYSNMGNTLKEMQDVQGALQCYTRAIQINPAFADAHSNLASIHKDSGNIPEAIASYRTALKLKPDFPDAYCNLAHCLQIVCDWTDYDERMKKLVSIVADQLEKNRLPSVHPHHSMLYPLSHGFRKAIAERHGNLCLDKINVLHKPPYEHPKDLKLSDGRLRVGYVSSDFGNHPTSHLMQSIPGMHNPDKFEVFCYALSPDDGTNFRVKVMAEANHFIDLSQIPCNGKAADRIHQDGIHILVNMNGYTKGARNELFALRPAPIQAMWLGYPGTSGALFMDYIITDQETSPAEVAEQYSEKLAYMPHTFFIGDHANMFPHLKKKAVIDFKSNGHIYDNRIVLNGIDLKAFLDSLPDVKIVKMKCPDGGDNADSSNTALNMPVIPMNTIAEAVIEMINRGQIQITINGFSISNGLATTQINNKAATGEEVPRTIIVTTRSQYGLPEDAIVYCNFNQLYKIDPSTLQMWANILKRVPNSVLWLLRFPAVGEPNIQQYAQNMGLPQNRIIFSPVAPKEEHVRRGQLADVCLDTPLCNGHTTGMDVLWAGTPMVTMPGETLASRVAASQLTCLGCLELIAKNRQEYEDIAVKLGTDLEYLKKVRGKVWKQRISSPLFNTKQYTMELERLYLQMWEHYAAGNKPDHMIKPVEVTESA
# Experimental: as §1
smiles,measurement,setting,value
CC(C)C[C@@H](C=O)NC(=O)[C@H](CC(C)C)NC(=O)[C@H](CC(C)C)NC(=O)OCc1ccccc1 [MG132] (Cbz-Leu-Leu-Leu-aldehyde),loss of Sp1 under low glucose and cAMP accumulation,[1],blocked
CC(=O)N[C@@H](CSC(=O)[C@]1([C@@H](O)C(C)C)NC(=O)[C@H](C)[C@@H]1O)C(=O)O [lactacystin],loss of Sp1 under low glucose and cAMP accumulation,[1],blocked
same,proteasome chymotryptic activity of extract from treated cells,[2],does not display this activity
"CCCN(CCCN)/[N+]([O-])=N/O [NOC-15, (Z)-1-[N-(3-Ammoniopropyl)-N-(n-propyl)amino]diazen-ium-1,2-diolate]",inhibition of STZ-induced p135 O-glycosylation,"[3]; rat islets, 5 mM streptozotocin and 5 mM NOC-15",almost completely inhibiting
N[C@H]1C(O)O[C@H](CO)[C@@H](O)[C@@H]1O (stereo partly shown) [glucosamine],Sp1 degradation after glucose starvation and forskolin,[1]; cells provided glucosamine,degradation decreased
same,proteasome chymotryptic activity of extract from treated cells,[2],does not display this activity
CN(N=O)C(=O)N[C@H]1C(O)O[C@H](CO)[C@@H](O)[C@@H]1O (mixture of isomers) [streptozotocin],p53 by immunohistochemistry in neurons of the hippocampus,[4]; 16 hours post icv injection,readily detectable
same,TGFα-βgal reporter function in hippocampal neurons,"[4]; icv injection 36 hours prior to sacrifice, wildtype TGFα-βgal mice",show reporter function
same,β-gal reporter activity in pancreas,[5],appeared in the β-cells but not exocrine pancreas
same,LLVY chymotryptic activity in the brains of treated animals,"[6]; brain extract, preliminary results",marked inhibition
same,effect on p135 O-glycosylation,"[3]; rat islets, 5 mM",stimulated
same,O-GlcNAc signal in hippocampal neurons (RL2),[7],marked increase
same,p53 accumulation in islets,[8]; at 16 hours,well established
same,time of peak TUNEL positivity after administration,[8]; rat islets,22 to 24 h
same,apoptosis in islets by TUNEL assay,[8]; rats treated with STZ,causes apoptosis
NCCCN(CCCN)/[N+]([O-])=N/O [DPTA],inhibition of p135 O-glycosylation,[3],do not inhibit
CC(C)[C@H](O)[C@@]12NC(=O)[C@H](C)[C@@H]1OC2=O [β-lactone],suc-LLVY-AMC fluorescence in brain extract,[6]; inhibitor added to extract,inhibited
CCCC[C@@H](C=O)NC(=O)[C@H](CC(C)C)NC(=O)[C@H](CC(C)C)NC(C)=O [LLnL] (Ac-Leu-Leu-[Nle]-aldehyde),loss of Sp1 under low glucose and cAMP accumulation,[1],blocked
CC(=O)N[C@H]1[C@@H](OP(=O)(O)OP(=O)(O)OC[C@H]2O[C@@H](n3ccc(=O)[nH]c3=O)[C@H](O)[C@@H]2O)O[C@H](CO)[C@H](O)[C@@H]1O [UDP-GalNAc],effect on the inhibitory effect of catalytically active O-GlcNAc transferase on Sp1 processing,[9],partially blocked
NCCCNCCCCN(CCCN)/[N+]([O-])=N/O [Spermine NONOate],inhibition of p135 O-glycosylation,[3],do not inhibit
O=C1NC(=O)C(=O)C(=O)N1 [alloxan],increase in the O-GlcNAc modification of p135 in response to glucose or glucosamine,[10],fail to display an increase
same,IC50,[11],100 µM
